In the experiment the target is T1, b-Raf(V600E) (Homo sapiens, UniProt P15056, V600E).
T1 construct: made in house
T1 sequence (P15056 whole entry V600E): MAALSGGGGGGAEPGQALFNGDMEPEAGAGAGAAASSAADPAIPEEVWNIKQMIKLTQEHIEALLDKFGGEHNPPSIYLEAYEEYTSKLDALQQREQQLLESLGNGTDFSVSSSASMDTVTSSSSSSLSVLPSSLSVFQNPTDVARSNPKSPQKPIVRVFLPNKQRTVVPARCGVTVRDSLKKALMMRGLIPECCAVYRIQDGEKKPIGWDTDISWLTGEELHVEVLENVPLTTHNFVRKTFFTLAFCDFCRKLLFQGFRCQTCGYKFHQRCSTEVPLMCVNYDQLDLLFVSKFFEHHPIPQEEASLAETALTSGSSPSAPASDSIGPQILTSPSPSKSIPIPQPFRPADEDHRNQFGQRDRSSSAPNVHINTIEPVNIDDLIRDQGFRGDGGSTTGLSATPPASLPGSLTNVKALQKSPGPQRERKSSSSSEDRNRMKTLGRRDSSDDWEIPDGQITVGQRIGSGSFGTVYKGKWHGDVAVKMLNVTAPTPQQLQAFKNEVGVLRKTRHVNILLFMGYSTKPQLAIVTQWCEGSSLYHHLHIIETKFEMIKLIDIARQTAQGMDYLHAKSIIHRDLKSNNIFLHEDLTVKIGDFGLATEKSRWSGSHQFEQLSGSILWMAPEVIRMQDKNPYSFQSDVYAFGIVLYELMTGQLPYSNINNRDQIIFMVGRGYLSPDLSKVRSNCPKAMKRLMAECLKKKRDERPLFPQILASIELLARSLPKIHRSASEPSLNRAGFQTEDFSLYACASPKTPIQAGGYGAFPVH
Nature of the experiment: Raf/Mek Amplified Luminescence Proximity Homogeneous Assay (Alpha Screen), b-Raf(V600E). Format: biochemical. The note with it: mutant b-Raf(V600E), read-out: mut-b-RAF (IC50 in uM). In outline:
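Active b-Raf(V600E) (~4 pM) pre-incubated 60 min at room temperature with compound and kinase-dead biotinylated Mek (~10 nM) in Tris pH 7.5, MgCl2, BSA, DTT; ATP-started reaction ran 3 h, EDTA-stopped. Phospho-MEK detected by anti-p-MEK AlphaScreen luminescence; IC50 by non-linear regression.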
`COc1cc(-c2[nH]c(-c3ccccc3)nc2-c2ccnc(N[C@@H]3CCCN(S(=O)(=O)C4CC4)C3)n2)cnc1N` [Compound 91, (R)-4-(5-(6-amino-5-methoxypyridin-3-yl)-2-phenyl-1H-imidazol-4-yl)-N-(1-(cyclopropylsulfonyl)piper-idin-3-yl)pyrimidin-2-amine]: the IC50 amounted to 0.0044 µM.

`COc1cc(-c2nc(-c3ccccc3)oc2-c2ccncc2)cnc1N` [Compound 92, 3-methoxy-5-(2-phenyl-5-(pyridin-4-yl)oxazol-4-yl)pyridin-2-amine]: the IC50 worked out at 0.0003 µM.

`COc1cc(-c2[nH]c(-c3ccc(F)cc3)nc2-c2ccncc2F)cnc1N` [Compound 93, 5-(2-(4-fluorophenyl)-4-(3-fluoropyridin-4-yl)-1H-imidazol-5-yl)-3-methoxypyridin-2-amine]: the IC50 was determined as 0.0038 µM.

Take `COc1cc(-c2[nH]c(-c3ccc(F)cc3)nc2-c2ccncc2Cl)cnc1N` [Compound 94, 5-(4-(3-chloropyridin-4-yl)-2-(4-fluorophenyl)-1H-imidazol-5-yl)-3-methoxypyridin-2-amine]: the concentration for half-maximal inhibition (IC50) was 0.0606 µM.

Take `COc1cc(-c2[nH]c(-c3ccc(F)cc3)nc2-c2ccnc(NC3CCN(S(=O)(=O)C4CC4)CC3)n2)cnc1N` [Compound 95, 4-(5-(6-amino-5-methoxypyridin-3-yl)-2-(4-fluorophenyl)-1H-imidazol-4-yl)-N-(1-(cyclopropylsulfonyl)piper-idin-4-yl)pyrimidin-2-amine]: the 50% inhibitory concentration (IC50) was determined as 0.0025 µM.

Regarding `COc1cc(-c2[nH]c(-c3ccc(F)cc3)nc2-c2cn[nH]c2)cnc1N` [Compound 96, 5-(2-(4-fluorophenyl)-4-(1H-pyrazol-4-yl)-1H-imidazol-5-yl)-3-methoxypyridin-2-amine], the 50% inhibitory concentration (IC50) was 0.0321 µM.

In the case of `COCC(=O)N1CCC[C@@H](Nc2nccc(-c3nc(-c4ccc(C(F)(F)F)cc4)[nH]c3-c3cnc(N)c(OC)c3)n2)C1` [Compound 97, (R)-1-(3-(4-(5-(6-amino-5-methoxypyridin-3-yl)-2-(4-(trifluoromethyl)phenyl)-1H-imidazol-4-yl)pyrimidin-2-ylamino)piperidin-1-yl)-2-methoxyethanone], the IC50 stood at 0.031 µM.

Regarding `COc1cc(-c2[nH]c(-c3ccc(F)cc3)nc2-c2ccnc(NCCNS(=O)(=O)C3CC3)n2)cnc1N` [Compound 98, N-(2-(4-(5-(6-amino-5-methoxypyridin-3-yl)-2-(4-fluorophenyl)-1H-imidazol-4-yl)pyrimidin-2-ylamino)ethyl)cyclopro-panesulfonamide], the IC50 is 0.0001 µM.

Turning to `COc1cc(-c2[nH]c(-c3ccccc3)nc2-c2ccnc(NCCNS(C)(=O)=O)n2)cnc1N` [Compound 99, N-(2-(4-(5-(6-amino-5-methoxypyridin-3-yl)-2-phenyl-1H-imidazol-4-yl)pyrimidin-2-ylamino)ethyl)methanesul-fonamide], the IC50 turned out to be 0.0001 µM.

Regarding `COCC(=O)N1CCC[C@@H](Nc2nccc(-c3nc(-c4ccc(F)cc4)[nH]c3-c3cnc(N)c(OC)c3)n2)C1` [Compound 100, (R)-1-(3-(4-(5-(6-amino-5-methoxypyridin-3-yl)-2-(4-fluorophenyl)-1H-imidazol-4-yl)pyrimidin-2-ylamino)piperidin-1-yl)-2-methoxyethanone], the IC50 stood at 0.0259 µM.

Consider `COC(=O)c1cccc(-c2nc(-c3ccncc3)c(-c3cnc(N)c(OC)c3)[nH]2)c1` [Compound 101, methyl 3-(5-(6-amino-5-methoxypyridin-3-yl)-4-(pyridin-4-yl)-1H-imidazol-2-yl)benzoate], for which the IC50 worked out at 0.0013 µM.

As for `COc1cc(-c2[nH]c(-c3cccc(C#N)c3)nc2-c2ccncc2)cnc1N` [Compound 102, 3-(5-(6-amino-5-methoxypyridin-3-yl)-4-(pyridin-4-yl)-1H-imidazol-2-yl)benzonitrile], the IC50 came out at 0.0011 µM.

In the case of `COC(=O)c1ccc(-c2nc(-c3ccncc3)c(-c3cnc(N)c(OC)c3)[nH]2)cc1` [Compound 103, methyl 4-(5-(6-amino-5-methoxypyridin-3-yl)-4-(pyridin-4-yl)-1H-imidazol-2-yl)benzoate], the IC50 turned out to be 0.0007 µM.

On to `COc1cc(-c2[nH]c(-c3ccc(C#N)cc3)nc2-c2ccncc2)cnc1N` [Compound 104, 4-(5-(6-amino-5-methoxypyridin-3-yl)-4-(pyridin-4-yl)-1H-imidazol-2-yl)benzonitrile], for which the IC50 is 0.0014 µM.

With `CCc1cc(-c2[nH]c(-c3ccc(F)cc3)nc2-c2ccncc2)cnc1N` [Compound 105, 3-ethyl-5-(2-(4-fluorophenyl)-4-(pyridin-4-yl)-1H-imidazol-5-yl)pyridin-2-amine], the 50% inhibitory concentration (IC50) turned out to be 0.215 µM.

On to `COc1ccc(-c2nc(-c3ccncc3)c(-c3cnc(N)c(OC)c3)[nH]2)cc1OC` [Compound 107, 5-(2-(3,4-dimethoxyphenyl)-4-(pyridin-4-yl)-1H-imidazol-5-yl)-3-methoxypyridin-2-amine], for which the IC50 is 0.0007 µM.

Turning to `COc1ccc(-c2nc(-c3ccncc3)c(-c3cnc(N)c(OC)c3)[nH]2)cc1F` [Compound 108, 5-(2-(3-fluoro-4-methoxyphenyl)-4-(pyridin-4-yl)-1H-imidazo-5-yl)-3-methoxypyridin-2-amine], the IC50 came to 0.0007 µM.

`COc1cc(-c2[nH]c(-c3ccc(F)c(F)c3)nc2-c2ccncc2)cnc1N` [Compound 109, 5-(2-(3,4-difluorophenyl)-4-(pyridin-4-yl)-1H-imidazol-5-yl)-3-methoxypyridin-2-amine]: the IC50 stood at 0.0012 µM.

Turning to `COc1cc(-c2[nH]c(-c3cccc(C)c3)nc2-c2ccncc2)cnc1N` [Compound 110, 3-methoxy-5-(4-(pyridin-4-yl)-2-tolyl-1H-imidazol-5-yl)pyridin-2-amine], the IC50 was 0.0005 µM.

`COc1cc(-c2nc(-c3ccc(F)cc3)[nH]c2-c2ccnc(F)c2)cnc1N` [Compound 111, 5-(2-(4-fluorophenyl)-5-(2-fluoropyridin-4-yl)-1H-imidazol-4-yl)-3-methoxypyridin-2-amine]: the IC50 turned out to be 0.0292 µM.

For the compound `COc1cc(-c2[nH]c(-c3ccc(F)cc3)nc2-c2cnc(N)c(OC)c2)ccn1` [Compound 112, 5-(2-(4-fluorophenyl)-5-(2-methoxypyridin-4-yl)-1H-imidazol-4-yl)-3-methoxypyridin-2-amine], the IC50 is 0.737 µM.

In the case of `COc1cc(-c2nc(C3=CCCCC3)[nH]c2-c2ccncc2)cnc1N` [Compound 113, 5-(2-cyclohexenyl-5-(pyridin-4-yl)-1H-imidazol-4-yl)-3-methoxypyridin-2-amine], the IC50 was determined as 0.0026 µM.

On to `COc1cc(-c2[nH]c(-c3ccc(OCCN(C)C)cc3)nc2-c2ccncc2)cnc1N` [Compound 114], for which the IC50 is 0.0064 µM.

Consider `COc1cc(-c2[nH]c(-c3cccc(C(C)C)c3)nc2-c2ccncc2)cnc1N` [Compound 115, 5-(2-(3-isopropylphenyl)-4-(pyridin-4-yl)-1H-imidazol-5-yl)-3-methoxypyridin-2-amine], for which the IC50 worked out at 0.003 µM.

On to `COc1cc(-c2[nH]c(-c3cccc(OC)c3F)nc2-c2ccncc2)cnc1N` [Compound 116, 5-(2-(2-fluoro-3-methoxyphenyl)-4-(pyridin-4-yl)-1H-imidazol-5-yl)-3-methoxypyridin-2-amine], for which the IC50 was determined as 0.0017 µM.

Take `COc1cc(-c2[nH]c(-c3ccc(C)c(F)c3)nc2-c2ccncc2)cnc1N` [Compound 117, 5-(2-(3-fluoro-4-methylphenyl)-4-(pyridin-4-yl)-1H-imidazol-5-yl)-3-methoxypyridin-2-amine]: the IC50 stood at 0.0007 µM.

`COc1cc(-c2nc(C3CCCCC3)[nH]c2-c2ccncc2)cnc1N` [Compound 118, 5-(2-cyclohexyl-5-(pyridin-4-yl)-1H-imidazol-4-yl)-3-methoxypyridin-2-amine]: the IC50 was 0.002 µM.

In the case of `COc1cc(-c2nc(-c3ccn(C)n3)[nH]c2-c2ccncc2)cnc1N` [Compound 119, 3-methoxy-5-(2-(1-methyl-1H-pyrazol-3-yl)-5-(pyridin-4-yl)-1H-imidazol-4-yl)pyridin-2-amine], the IC50 is 0.0019 µM.

Consider `COc1cc(-c2[nH]c(-c3cccc(S(C)(=O)=O)c3)nc2-c2ccncc2)cnc1N` [Compound 120, 3-methoxy-5-(2-(3-(methylsulfonyl)phenyl)-4-(pyridin-4-yl)-1H-imidazol-5-yl)pyridin-2-amine], for which the IC50 is 0.0088 µM.

Take `COc1cc(-c2[nH]c(-c3ccc(S(N)(=O)=O)cc3)nc2-c2ccncc2)cnc1N` [Compound 121, 4-(5-(6-amino-5-methoxypyridin-3-yl)-4-(pyridin-4-yl)-1H-imidazol-2-yl)benzenesulfonamide]: the IC50 was determined as 0.0017 µM.

As to `COc1cc(-c2[nH]c(-c3cccc(C(N)=O)c3)nc2-c2ccncc2)cnc1N` [Compound 122, 3-(5-(6-amino-5-methoxypyridin-3-yl)-4-(pyridin-4-yl)-1H-imidazol-2-yl)benzamide], the IC50 came to 0.0021 µM.

Take `COc1cc(-c2[nH]c(-c3cc(C(=O)N(C)C)ccc3F)nc2-c2ccncc2)cnc1N` [Compound 124, 3-(5-(6-amino-5-methoxypyridin-3-yl)-4-(pyridin-4-yl)-1H-imidazol-2-yl)-4-fluoro-N,N-dimethylbenzamide]: the IC50 came to 0.0166 µM.

In the case of `COc1cc(-c2[nH]c(-c3ccc(C(N)=O)cc3)nc2-c2ccncc2)cnc1N` [Compound 126, 4-(5-(6-amino-5-methoxypyridin-3-yl)-4-(pyridin-4-yl)-1H-imidazol-2-yl)benzamide], the 50% inhibitory concentration (IC50) came to 0.0035 µM.

Take `COc1cc(-c2nc(C3=CCCC3)[nH]c2-c2ccncc2)cnc1N` [Compound 127, 5-(2-cyclopentenyl-5-(pyridin-4-yl)-1H-imidazol-4-yl)-3-methoxypyridin-2-amine]: the IC50 came to 0.0018 µM.

`COc1cc(-c2nc(C(C)(C)C)[nH]c2-c2ccncc2)cnc1N` [Compound 128, 5-(2-tert-butyl-5-(pyridin-4-yl)-1H-imidazol-4-yl)-3-methoxypyridin-2-amine]: the IC50 turned out to be 0.001 µM.
